Laboratory results: patent publication US20220142948A1, “COMPOSITIONS AND METHODS FOR MODULATING METABOLIC REGULATORS OF T CELL PATHOGENICITY” (The Broad Institute, Inc., priority 2019, published 2022)
Entries after “also recorded” stand apart in the source; their conditions may differ.

Tests used:
[1] = tested on: experimental autoimmune encephalomyelitis (EAE); assay: Active EAE (MOG35-55/CFA immunization) with DFMO in drinking water; assay type: in vivo, mouse
Protocol: Experimental Autoimmune Encephalomyelitis (EAE). […] Equivalent of 40 μg MOG peptide was injected per mouse subcutaneously followed by pertussis toxin injection intravenously on day 0 and day 2 of immunization. Mice were treated with 0.5% DFMO in drinking water for 10 days as indicated. DFMO was replenished every third day.
Experimental Autoimmune Encephalomyelitis (EAE). […] Equivalent of 40 μg MOG peptide was injected per mouse subcutaneously followed by pertussis toxin injection intravenously on day 0 and day 2 of immunization. Mice were monitored and assigned grades for clinical signs of EAE using the following scoring system: 0, healthy; 1, limp tail; 2, impaired righting reflex or ataxic gait; 3, hind limb paralysis; 4, total limb paralysis; 5, moribund or death. Mice with a score of >4 were euthanized. If mice died during the course of the experiment, their clinical score of 5 was included in the analysis for the remainder of the experiment.

ODC = molecular target: T1, ODC (Homo sapiens, UniProt P11926); settings: cited from earlier work
T1 sequence (P11926 1-461): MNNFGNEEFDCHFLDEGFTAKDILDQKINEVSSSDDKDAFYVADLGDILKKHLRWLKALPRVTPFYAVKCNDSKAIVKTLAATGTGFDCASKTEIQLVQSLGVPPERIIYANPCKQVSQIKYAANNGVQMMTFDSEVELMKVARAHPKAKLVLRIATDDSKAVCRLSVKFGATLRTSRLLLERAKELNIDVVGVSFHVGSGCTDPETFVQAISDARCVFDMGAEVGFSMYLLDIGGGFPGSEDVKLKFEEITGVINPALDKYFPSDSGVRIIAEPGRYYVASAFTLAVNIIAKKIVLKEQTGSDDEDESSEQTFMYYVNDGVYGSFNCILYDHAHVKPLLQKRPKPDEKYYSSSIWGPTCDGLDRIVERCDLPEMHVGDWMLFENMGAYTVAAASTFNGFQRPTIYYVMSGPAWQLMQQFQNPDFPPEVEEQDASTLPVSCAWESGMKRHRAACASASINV

Q: What does the source list for `NCCC[C@](N)(C(=O)O)C(F)F` [DFMO, 2-(difluoromethyl)ornithine]?
A: EAE clinical score, onset and severity ([1]; 0.5% DFMO in drinking water for 10 days): effective in reducing EAE; also recorded: decreases the EAE score; also recorded: delays EAE onset; also recorded: significantly delayed the onset and severity of EAE; also recorded: significant impact in curtailing EAE; Foxp3+CD4+ T cells (Tregs) ([1]; lymphocytes isolated from CNS): promotes Tregs; also recorded: increased frequency; frequency of cytokine producing cells ([1]; lymphocytes isolated from CNS): no difference; uptake of exogenous putrescine (ODC; cells treated in vivo with DFMO): significantly increase; ODC activity (ODC; in vivo): irreversibly inhibit
